In patent US8512789B2, “High-potency sweetener composition with dietary fiber and compositions sweetened therewith” (The Coca-Cola Company, priority 2005, dated 2013):

Key:
[1] = Sensory evaluation of sweetness linger by a panel of experts; format: in vivo; parameters: key: 0=no sweetness linger; 1=very slight sweetness linger; 2 slight sweetness linger; 3 moderate sweetness linger; 4=moderately high sweetness linger; 5 high sweetness linger
Protocol: In a particular embodiment, a panel of assessors is used to measure the reduction of sweetness linger. Briefly described, a panel of assessors (generally 8 to 12 individuals) is trained to evaluate sweetness perception and measure sweetness at several time points from when the sample is initially taken into the mouth until 3 minutes after it has been expectorated. […] A decrease in score for a time point measured after the sample has cleared the mouth indicates there has been a reduction in sweetness perception.
The panel of assessors may be trained using procedures well known to those of ordinary skill in the art. In a particular embodiment, the panel of assessors may be trained using the Spectrum™ Descriptive Analysis Method (Meilgaard et al, Sensory Evaluation Techniques, 3rd edition, Chapter 11). Desirably, the focus of training should be the recognition of and the measure of the basic tastes; specifically, sweet. […]
Sensory evaluation of the samples prepared in Example Set C was carried out under the following protocol, similar to that described hereinabove. […] Immediately upon sensing maximal sweetness, the sample was expectorated, the mouth was rinsed with water and the rate of sweetness decay (“Sweetness Linger”) was measured, where attention was focused on the sweetness 3-4 min after the water rinse. […]

[2] = Rate of dissolution of rebaudioside A polymorph and amorphous forms in H2O at 25° C.; format: physicochemical

Substance | Rate of dissolution in H2O at 25° C. [2] | Rate of dissolution in H2O at 25° C. (in words) [2] | Sweetness Linger rating ([1]; Example Set G: citric acid/potassium citrate composition equivalent to diet lemon-lime beverage, 400 ppm REBA base (sugar control 8 g/100 ml), scale 0-5, sweetness 3-4 min after water rinse) | Sweetness Linger rating ([1]; Example Set H: carbon-treated water with phosphoric acid (75%), pH 2.4-2.5, REBA base (sugar control 10 g/100 ml), scale 0-5)
rebaudioside A |  |  | 5 | 5
rebaudioside A [Form 1] | (<0.2%/ %/60 minutes | Very low |  | 
rebaudioside A [Form 3] | (>30%/ %/5 minutes | High |  | 

Second part, led by results:

Rate of dissolution in H2O at 25° C. [2] | Rate of dissolution in H2O at 25° C. (in words) [2] | Substance | Sweetness Linger rating ([1]; Example Set G: citric acid/potassium citrate composition equivalent to diet lemon-lime beverage, 400 ppm REBA base (sugar control 8 g/100 ml), scale 0-5, sweetness 3-4 min after water rinse) | Sweetness Linger rating ([1]; Example Set H: carbon-treated water with phosphoric acid (75%), pH 2.4-2.5, REBA base (sugar control 10 g/100 ml), scale 0-5)
 | Intermediate | rebaudioside A [Form 2] |  | 
(>35%/ %/5 minutes | High | rebaudioside A [Form 4] |  | 
